The test deals with BDF1 mice, colon carcinoma 38 sc, T/C %. In words: NCI In Vivo Anticancer Drug Screen. Data for tumor model Colon Carcinoma 38 (subcutaneous) in B6D2F1 (BDF1) mice. The note with it: endpoint: median tumor weight (est.), higher = larger tumour. The method, then:
The antitumor activity of compounds was measured in mice bearing transplantable tumors. Survival or tumor size were measured and the results are expressed as the measurement made in the treated group (T) divided by the measurement made in the vehicle treated control group (C). The tumor model used in this assay is Colon Carcinoma 38 (subcutaneous) in B6D2F1 (BDF1) mice

[1] abbreviates: dose: 6.25 mg/kg/injection, schedule: Q07DX002 (ip), vehicle: Klucel (hydroxypropylcellulose) (HPC).
Setting [2] is: dose: 12.5 mg/kg/injection, schedule: Q07DX002 (ip), vehicle: Klucel (hydroxypropylcellulose) (HPC).
Where [3] appears, read: dose: 25.0 mg/kg/injection, schedule: Q07DX002 (ip), vehicle: Klucel (hydroxypropylcellulose) (HPC).
The mark [4] stands for this setting: dose: 25.0 mg/kg/injection, schedule: Q07DX002 (ip), vehicle: saline.
Where [5] appears, read: dose: 50.0 mg/kg/injection, schedule: Q07DX002 (ip), vehicle: saline.
Setting [6] is: dose: 100.0 mg/kg/injection, schedule: Q07DX002 (ip), vehicle: saline.
Setting [7] is: dose: 200.0 mg/kg/injection, schedule: Q07DX002 (ip), vehicle: saline.
[8] abbreviates: dose: 400.0 mg/kg/injection, schedule: Q07DX002 (ip), vehicle: saline.
Setting [9] is: dose: 800.0 mg/kg/injection, schedule: Q07DX002 (ip), vehicle: saline.
[10] abbreviates: dose: 6.25 mg/kg/injection, schedule: Q07DX003 (ip), vehicle: Klucel (hydroxypropylcellulose) (HPC).
Setting [11] is: dose: 12.5 mg/kg/injection, schedule: Q07DX003 (ip), vehicle: suspension in saline.
The mark [12] stands for this setting: dose: 25.0 mg/kg/injection, schedule: Q07DX003 (ip), vehicle: suspension in saline.
The mark [13] stands for this setting: dose: 50.0 mg/kg/injection, schedule: Q07DX003 (ip), vehicle: suspension in saline.
Where [14] appears, read: dose: 100.0 mg/kg/injection, schedule: Q07DX003 (ip), vehicle: Klucel (hydroxypropylcellulose) (HPC).
The mark [15] stands for this setting: dose: 100.0 mg/kg/injection, schedule: Q07DX003 (ip), vehicle: suspension in saline.
[16] abbreviates: dose: 100.0 mg/kg/injection, schedule: Q07DX002 (ip), vehicle: Klucel (hydroxypropylcellulose) (HPC).
[17] abbreviates: dose: 200.0 mg/kg/injection, schedule: Q07DX002 (ip), vehicle: Klucel (hydroxypropylcellulose) (HPC).
[18] abbreviates: dose: 400.0 mg/kg/injection, schedule: Q07DX002 (ip), vehicle: Klucel (hydroxypropylcellulose) (HPC).
Setting [19] is: dose: 12.5 mg/kg/injection, schedule: Q07DX002 (ip), vehicle: saline.

Values joined by “and” are separate entries in the source; they are usually repeats but may differ in a detail not shown here. Equal values may be shown once. Results filed as inconclusive are left out.

As for `C=CS(C=C)=NS(=O)(=O)c1ccc(C)cc1`, the T/C by setting is: (dose: 1.56 mg/kg/injection, schedule: Q07DX002 (ip), vehicle: Klucel (hydroxypropylcellulose) (HPC)) 110 % of control; under setting [1], 110 % of control; under setting [2], 111 % of control; under setting [3], 94 % of control.
As for `CCOC(=O)C1=C(C#N)C2(CCC(OCc3ccccc3)CC2)C(=O)O1` (stereo not given), the T/C reads like this: under setting [4], 47 % of control; (dose: 25.0 mg/kg/injection, schedule: Q07DX002 (ip), vehicle: suspension in saline) 87 % of control; under setting [5], 53 % of control; under setting [6], 35 % of control; (dose: 100.0 mg/kg/injection, schedule: Q07DX002 (ip), vehicle: suspension in saline) 115 % of control; under setting [7], 73 % of control. Also, the T/C runs as follows: under setting [8], 47 % of control; (dose: 400.0 mg/kg/injection, schedule: Q07DX002 (ip), vehicle: suspension in saline) 102 % of control; under setting [9], 64 % of control; (dose: 800.0 mg/kg/injection, schedule: Q07DX002 (ip), vehicle: suspension in saline) 102 % of control.
With `CN(Cc1cnc2nc(N)nc(N)c2n1)c1c(Cl)cc(C(=O)NC(CCC(=O)O)C(=O)O)cc1Cl` (stereo not given), the T/C reads like this: (dose: 3.12 mg/kg/injection, schedule: Q07DX003 (ip), vehicle: Klucel (hydroxypropylcellulose) (HPC)) 155 % of control; under setting [10], 117 % of control; under setting [11], 87 % of control; under setting [12], 124 % of control; (dose: 50.0 mg/kg/injection, schedule: Q07DX003 (ip), vehicle: Klucel (hydroxypropylcellulose) (HPC)) 72 % of control; under setting [13], 77 % of control. Besides, the T/C runs as follows: under setting [14], 90 % of control; under setting [15], 86 % of control; (dose: 200.0 mg/kg/injection, schedule: Q07DX003 (ip), vehicle: Klucel (hydroxypropylcellulose) (HPC)) 102 % of control; (dose: 200.0 mg/kg/injection, schedule: Q07DX003 (ip), vehicle: suspension in saline) 81 % of control; (dose: 400.0 mg/kg/injection, schedule: Q07DX003 (ip), vehicle: Klucel (hydroxypropylcellulose) (HPC)) 62 % of control; (dose: 400.0 mg/kg/injection, schedule: Q07DX003 (ip), vehicle: suspension in saline) 101 % of control.
As to `[Cl][Pt+2][Cl].[NH-]C1CCC1.[NH2-]`, the T/C is, setting by setting: (dose: 1.5 mg/kg/injection, schedule: Q07DX002 (ip), vehicle: saline) 95 % of control; (dose: 3.0 mg/kg/injection, schedule: Q07DX002 (ip), vehicle: saline) 64 % of control; (dose: 12.0 mg/kg/injection, schedule: Q07DX002 (ip), vehicle: saline) 43 % of control and 49 % of control; (dose: 24.0 mg/kg/injection, schedule: Q07DX002 (ip), vehicle: saline) 13 % of control.
With `C[C@H]1C[C@@H]2[C@H]([C@@H](O)C[C@@]3(C)[C@H]2CC[C@]3(O)C(=O)CO)[C@@]2(C)C=CC(=O)C=C12`, the T/C is 82 % of control under setting [1]; 87 % of control and 88 % of control under setting [3]; 111 % of control and 86 % of control under setting [16]; 87 % of control and 88 % of control under setting [17]; 93 % of control under setting [18].
Consider `Cc1c(-c2ccc(C3CCCCC3)cc2)nc2ccc(F)cc2c1C(=O)O`, for which the T/C was 89 % of control (dose: 50.0 mg/kg/injection, schedule: Q07DX002 (ip), vehicle: Klucel (hydroxypropylcellulose) (HPC)); 80 % of control under setting [16]; 116 % of control under setting [17]; 86 % of control under setting [18]; 120 % of control (dose: 400.0 mg/kg/injection, schedule: Q07DX002 (ip), vehicle: Klucel + Tween-80); 107 % of control (dose: 800.0 mg/kg/injection, schedule: Q07DX002 (ip), vehicle: Klucel (hydroxypropylcellulose) (HPC)). Moreover, the T/C (dose: 800.0 mg/kg/injection, schedule: Q07DX002 (ip), vehicle: Klucel + Tween-80) was 80 % of control.
Consider `COc1cc(C2C3=C(CC(C)(C)CC3=O)N(CC(=O)O)C3=C2C(=O)CC(C)(C)C3)ccc1O`, for which the T/C reads like this: under setting [19], 90 % of control; under setting [4], 99 % of control; under setting [5], 118 % of control; under setting [6], 111 % of control; under setting [7], 55 % of control; under setting [8], 118 % of control.
For `CN(C)N=Nc1ccccc1`, the T/C under setting [2] was 80 % of control and 86 % of control; the T/C under setting [3] is 42 % of control and 49 % of control; the T/C under setting [16] is 24 % of control and 27 % of control.
As for `CC(Cc1ccc(O)c(O)c1)C(C)Cc1ccc(O)c(O)c1` (stereo not given), the T/C runs as follows: under setting [4], 100 % of control; under setting [5], 83 % of control; under setting [6], 94 % of control; under setting [9], 90 % of control.
For `Cc1[nH]c(=O)[nH]c(=O)c1N(CCF)CCCl`, the T/C is 69 % of control and 71 % of control (dose: 16.0 mg/kg/injection, schedule: Q07DX002 (ip), vehicle: Klucel (hydroxypropylcellulose) (HPC)); 67 % of control and 79 % of control and 82 % of control (dose: 32.0 mg/kg/injection, schedule: Q07DX002 (ip), vehicle: Klucel (hydroxypropylcellulose) (HPC)); 38 % of control (dose: 64.0 mg/kg/injection, schedule: Q07DX002 (ip), vehicle: Klucel (hydroxypropylcellulose) (HPC)); 21 % of control and 28 % of control (dose: 64.0 mg/kg/injection, schedule: Q07DX003 (ip), vehicle: Klucel (hydroxypropylcellulose) (HPC)).
Turning to `CC1(C)N=C(N)N=C(N)N1c1ccc(F)c(C(F)(F)F)c1`, the T/C reads like this: (dose: 1.56 mg/kg/injection, schedule: Q07DX002 (ip), vehicle: saline) 87 % of control; (dose: 6.25 mg/kg/injection, schedule: Q07DX002 (ip), vehicle: saline) 81 % of control and 84 % of control; under setting [19], 50 % of control and 64 % of control; under setting [11], 169 % of control; under setting [4], 79 % of control and 91 % of control; under setting [12], 161 % of control. Further, the T/C under setting [5] is 40 % of control and 60 % of control; the T/C under setting [13] was 95 % of control; the T/C under setting [15] is 104 % of control.
Turning to `NC(CCl)=NCC12CC3CC(CC(C3)C1)C2`, the T/C is 72 % of control under setting [10]; 39 % of control (dose: 25.0 mg/kg/injection, schedule: Q07DX003 (ip), vehicle: Klucel (hydroxypropylcellulose) (HPC)); 94 % of control under setting [14].
On to `Cc1cc(O)c2c(c1O)C(=O)c1cccc(O)c1C2=O`, for which the T/C (dose: 0.18 mg/kg/injection, schedule: Q07DX002 (ip), vehicle: Klucel (hydroxypropylcellulose) (HPC)) is 86 % of control; the T/C (dose: 0.37 mg/kg/injection, schedule: Q07DX002 (ip), vehicle: Klucel (hydroxypropylcellulose) (HPC)) is 60 % of control; the T/C (dose: 0.75 mg/kg/injection, schedule: Q07DX002 (ip), vehicle: Klucel (hydroxypropylcellulose) (HPC)) is 59 % of control; the T/C (dose: 1.5 mg/kg/injection, schedule: Q07DX002 (ip), vehicle: Klucel (hydroxypropylcellulose) (HPC)) was 110 % of control.

Values taken from PubChem BioAssay AID212 (DTP/NCI, 2004).
